The results in this text go back to patent US5851782A, “Inhibitors of ceramidase” (Duke University, priority 1996, dated 1998).

The test system of assay [1] is endogenous levels of sphingomyelin. The experiment in a line: Endogenous sphingomyelin levels in cells. The class given is cell-based. The text has this: (§1) In addition to ceramidase, inhibition of cerebroside synthase and sphingomyelin synthase or stimulation of sphingomyelinase or cerebrosidase could result in elevations in endogenous ceramide levels. Therefore, the effects of D- and L-e-MAPP were examined on these enzyme activities in vitro and in cells.

Assay [2] concerns HL-60 human myelocytic leukemia cells. The experiment in a line: HL-60 cell proliferation (cell counting). Conditions: for effect on cell growth: HL-60 cells, 5 μM, time course. Format: cell-based. The procedure:
(§2) Proliferation and cell cycle studies. HL-60 human myelocytic leukemia cells (obtained from the American Type Culture Collection) were grown in RPMI 1640 medium containing 10 fetal calf serum at 37° C. in 5% CO2 incubator. For proliferation and cell cycle studies, cells were resuspended at a density of 2×10^5 cells/ml in serum-free media containing insulin (5 mg/liter) and transferrin (5 mg/liter) and sodium selenite (5 μg/liter) for 2-4 h. Cells were then treated with the indicated compounds. Ethanol concentration was always maintained at less than 0.1%. Cell proliferation was determined by counting cells using a hemacytometer, cell viability was evaluated by trypan blue dye exclusion, and cell cycle analysis was determined by propidium iodide flow cytometry as described (Chao et al, J. Biol. Chem. 267:23459 (1992)).
In structure-function analysis of ceramide-mediated growth suppression using amides of phenylaminoalcohols, D- and L-erythro-MAPP were employed. In these studies, HL-60 cells were treated with 5 μM of either D-e-MAPP or L-e-MAPP, and growth was determined at the indicated time points (FIG. 2A).
Studies were conducted examining the uptake and metabolism of D- and L-MAPP. In the first set of studies, the effect of duration of exposure of HL-60 cells to D-e-MAPP on the bioactivity of the molecule was determined. D-e-MAPP added to cells could be washed off by repeated sedimentation and washing of cells. Thus, after five cycles of washing, less than 10% of D-MAPP remained associated with the cell pellet-compared to unwashed cells (FIG. 5A).

A further assay deals with HL-60 cells. The experiment in a line: Cell cycle analysis by propidium iodide flow cytometry. Format: cell-based, human. Conditions: HL-60, 5 μM, 48 h. The procedure:
as §2

Assay [3] deals with T1, Glucosylceramide synthase (Homo sapiens, UniProt Q16739).
T1 sequence (Q16739 1-394): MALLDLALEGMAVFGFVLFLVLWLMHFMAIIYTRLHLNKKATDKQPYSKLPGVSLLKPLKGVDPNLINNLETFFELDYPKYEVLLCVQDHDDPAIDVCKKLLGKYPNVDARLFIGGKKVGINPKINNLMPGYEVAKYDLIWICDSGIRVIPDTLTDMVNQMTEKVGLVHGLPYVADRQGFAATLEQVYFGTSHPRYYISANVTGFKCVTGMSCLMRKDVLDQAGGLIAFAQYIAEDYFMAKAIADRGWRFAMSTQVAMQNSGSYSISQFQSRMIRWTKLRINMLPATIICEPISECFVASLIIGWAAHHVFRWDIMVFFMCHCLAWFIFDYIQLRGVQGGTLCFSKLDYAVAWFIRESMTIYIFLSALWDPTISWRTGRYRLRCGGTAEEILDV
The experiment in a line: Glucocerebroside (glucosylceramide) synthase assay in vitro. The class given is biochemical. Particulars: 20 μM; for Glucosylceramide synthase activity: Control 1.009 ± 0.0424; for inhibition of cerebroside synthase activity: Table I. The procedure:
(§3) Glucocerebrosidase and glucocerebroside synthase assays. In vitro assays for gluccerebrosidase and for cerebroside synthase were performed as described (Abe et al, J. Biochem. (Tokyo) 11:191 (1992)).
as §1

A further assay concerns the target T2, acidic sphingomyelinase (Homo sapiens, UniProt P17405).
T2 sequence (P17405 47-631): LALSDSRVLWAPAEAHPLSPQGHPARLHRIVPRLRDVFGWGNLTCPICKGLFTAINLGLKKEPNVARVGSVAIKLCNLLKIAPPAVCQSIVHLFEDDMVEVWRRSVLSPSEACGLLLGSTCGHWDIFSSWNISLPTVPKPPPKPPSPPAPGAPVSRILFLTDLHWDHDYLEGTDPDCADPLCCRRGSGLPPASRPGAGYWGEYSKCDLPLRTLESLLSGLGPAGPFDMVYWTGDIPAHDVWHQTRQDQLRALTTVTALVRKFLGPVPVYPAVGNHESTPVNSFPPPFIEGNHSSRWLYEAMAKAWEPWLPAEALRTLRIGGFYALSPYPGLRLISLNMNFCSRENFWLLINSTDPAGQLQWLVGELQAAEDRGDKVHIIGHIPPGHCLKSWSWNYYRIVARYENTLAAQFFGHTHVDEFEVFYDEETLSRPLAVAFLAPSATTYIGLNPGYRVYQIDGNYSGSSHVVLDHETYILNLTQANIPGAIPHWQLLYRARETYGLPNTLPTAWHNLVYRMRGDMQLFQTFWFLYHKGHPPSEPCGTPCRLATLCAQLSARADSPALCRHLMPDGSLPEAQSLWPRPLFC
The experiment in a line: Acidic sphingomyelinase activity in vitro. Format: biochemical.
Source text: as §1

In a further assay the test system is neutral sphingomyelinase. The experiment in a line: Neutral sphingomyelinase activity in vitro. Format: biochemical.
Source text: as §1

Assay [4] deals with ceramide-activated protein phosphatase (CAPP). The experiment in a line: CAPP serine/threonine phosphatase activity in vitro. Format: biochemical. Particulars: myelin basic protein phosphorylated by protein kinase A as substrate.
A further assay deals with T3, β-glucosidase (Homo sapiens, UniProt P04062).
T3 sequence (P04062 40-536): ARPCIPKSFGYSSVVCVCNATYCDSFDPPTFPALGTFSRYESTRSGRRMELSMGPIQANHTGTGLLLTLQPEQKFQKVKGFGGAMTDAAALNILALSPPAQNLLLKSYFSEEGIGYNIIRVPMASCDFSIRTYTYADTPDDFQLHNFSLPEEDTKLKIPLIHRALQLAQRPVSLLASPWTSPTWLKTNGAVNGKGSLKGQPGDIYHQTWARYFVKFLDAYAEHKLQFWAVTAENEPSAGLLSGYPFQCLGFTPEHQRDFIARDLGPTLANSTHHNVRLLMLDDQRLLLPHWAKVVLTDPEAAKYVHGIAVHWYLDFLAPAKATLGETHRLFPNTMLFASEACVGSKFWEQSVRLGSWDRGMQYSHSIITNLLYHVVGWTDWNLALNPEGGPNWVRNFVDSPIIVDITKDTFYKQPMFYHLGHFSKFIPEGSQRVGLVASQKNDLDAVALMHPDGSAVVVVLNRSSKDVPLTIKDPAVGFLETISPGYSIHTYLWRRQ
The experiment in a line: Glucocerebrosidase assay in vitro. Format: biochemical. The procedure: as §3, §1

Each structure is given as a SMILES string.

In the case of `CCCCCCCCCCCCCC(=O)N[C@@H](C)[C@H](O)c1ccccc1` [L-e-MAPP, L-erythro-2-(N-myristolyamino)-1-phenyl-1-propanol], the “effect on endogenous levels of sphingomyelin” value in assay [1] is on record as “neither D- nor L-e-MAPP modulated the endogenous levels of sphingomyelin”. For the same molecule, the “effect on cell growth” value in assay [2] is “largely inactive”. Also, the “effect on cell cycle progression” value in the assay on HL-60 cells is reported as “largely without effect”. In assay [3], the Glucosylceramide synthase activity came out at 1.009 ± 0.0383 nmol/h/mg protein and the “inhibition of cerebroside synthase activity” value was “Neither D- nor L-e-MAPP caused inhibiton of cerebroside synthase activity”. Further, at acidic sphingomyelinase, the “effect on activity of acidic sphingomyelinase” value is recorded as “neither D- nor L-e-MAPP modulated the activity of neutral or acidic sphingomyelinases”. For the same molecule, the “effect on activity of neutral sphingomyelinase” value with neutral sphingomyelinase was “neither D- nor L-e-MAPP modulated the activity of neutral or acidic sphingomyelinases”. Moreover, the “activation of CAPP in vitro” value in assay [4] is on record as “neither D-e-MAPP nor L-e-MAPP activated CAPP”. Moreover, the “effect on activity of β-glucosidase” value at β-glucosidase is listed as “did not activate or modulate”.
With `CCCCCCCCCCCCCC(=O)N[C@H](C)[C@@H](O)c1ccccc1` [D-e-MAPP, D-erythro-2-(N-myristolyamino)-1-phenyl-1-propanol], in assay [1], the “effect on endogenous levels of sphingomyelin” value was “neither D- nor L-e-MAPP modulated the endogenous levels of sphingomyelin”. The “effect on cell growth, exposure for only 15 min” value in assay [2] (HL-60, 5 μM, back-extracted with 5 washes after 15 min) is reported as “did not affect cell growth”. Besides, the “effect on cell growth, continuous exposure” value in assay [2] (HL-60, 5 μM, compared to vehicle-treated cells) is listed as “dramatic growth inhibition”. The “effect on cell growth” value in assay [2] is listed as “time dependent suppression of growth”. In addition, the “population of cells in G2/M phase” value with HL-60 cells (from 10% untreated) amounted to 3%. Besides, in the assay with HL-60 cells (from 30% untreated), the “population of cells in S phase” value is 24%. Also, the “population of cells in G0/G1 phase” value in the assay on HL-60 cells (from 60% untreated) is on record as 73%. For the same molecule, in assay [3], the Glucosylceramide synthase activity came to 0.946 ± 0.0265 nmol/h/mg protein and the “inhibition of cerebroside synthase activity” value is “Neither D- nor L-e-MAPP caused inhibiton of cerebroside synthase activity”. The “effect on activity of acidic sphingomyelinase” value at acidic sphingomyelinase is “neither D- nor L-e-MAPP modulated the activity of neutral or acidic sphingomyelinases”. The “effect on activity of neutral sphingomyelinase” value with neutral sphingomyelinase is on record as “neither D- nor L-e-MAPP modulated the activity of neutral or acidic sphingomyelinases”. Further, the “activation of CAPP in vitro” value in assay [4] is listed as “neither D-e-MAPP nor L-e-MAPP activated CAPP”. In addition, on β-glucosidase, the “effect on activity of β-glucosidase” value is reported as “did not activate or modulate”.
